Experimental data published in ChEMBL document CHEMBL4376863, “Identification of Selective Inhibitors of Plasmodium N-Myristoyltransferase by High-Throughput Screening” (J Med Chem, 2020).
Calls of active or inactive are those of the source. The calls are words filed in the database; no cut-off is given here.

Tests used:
[1] = biological target: T1, Glycylpeptide N-tetradecanoyltransferase (Plasmodium falciparum (isolate 3D7)) (UniProt Q8ILW6); test: Binding affinity to Plasmodium falciparum NMT (27 to 410 residues) expressed in Escherichia coli Rosetta (DE3) assessed as change in melting temperature at 100 uM in presence of 100 uM myristoyl-CoA by Sypro orange dye based differential scanning fluorimetry (reference value: 0 degreeC)
T1 sequence (whole entry): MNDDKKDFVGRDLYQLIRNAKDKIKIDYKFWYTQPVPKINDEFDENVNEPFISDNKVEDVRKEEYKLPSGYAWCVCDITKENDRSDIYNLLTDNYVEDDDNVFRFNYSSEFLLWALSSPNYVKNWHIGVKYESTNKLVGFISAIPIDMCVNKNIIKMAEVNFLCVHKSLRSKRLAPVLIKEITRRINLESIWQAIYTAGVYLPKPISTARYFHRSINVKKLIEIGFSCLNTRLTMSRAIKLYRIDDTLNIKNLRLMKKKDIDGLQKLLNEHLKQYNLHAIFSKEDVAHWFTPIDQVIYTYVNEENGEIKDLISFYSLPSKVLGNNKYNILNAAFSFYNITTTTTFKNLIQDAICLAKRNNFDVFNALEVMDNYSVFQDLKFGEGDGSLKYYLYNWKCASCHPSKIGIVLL

[2] = tested on: Plasmodium falciparum; test: Antiplasmodial activity against asexual blood stage Plasmodium falciparum 3D7A MR4 infected in human RBCs assessed as decrease in [3H]-hypoxanthine incorporation pretreated for 24 hrs in presence of hypoxanthine followed by [3H]-hypoxanthine addition after 24 hrs by microbeta scintillation counter analysis; assay type: functional, organism-based
[3] = biological target: T1, Glycylpeptide N-tetradecanoyltransferase (Plasmodium falciparum (isolate 3D7)); test: Competitive inhibition of Plasmodium falciparum NMT (27 to 410 residues) expressed in Escherichia coli Rosetta (DE3) using H-GLYVSRLFNRLFQKK-NH2 as substrate
[4] = biological target: T1, Glycylpeptide N-tetradecanoyltransferase (Plasmodium falciparum (isolate 3D7)); test: Binding affinity to Plasmodium falciparum NMT (27 to 410 residues) expressed in Escherichia coli Rosetta (DE3) assessed as change in melting temperature at 100 uM in absence of 100 uM myristoyl-CoA by Sypro orange dye based differential scanning fluorimetry (reference value: 0 degreeC)

| SMILES | ΔTm [1] [°C] | inhibition [3] | ΔTm [4] [°C] | Activity [2] |
| --- | --- | --- | --- | --- |
| Cc1ccc(-n2nc(C(=O)N3CCCN(C)CC3)c3ccccc32)cc1 | 6.17 | Active | -0.02 | inactive |
| CCN(c1ccccc1)S(=O)(=O)c1ccc(Cl)c(C(=O)Nc2ccccc2N2CCCC2=O)c1 | 7.33 |  | 1.42 | inactive |
| Clc1cccc(O[C@H]2C[C@H](NCc3cnc4[nH]ccc4c3)C2)c1Cl | 6.57 | Active | -2.91 | inactive |

Now from value to molecule, other results behind:

| ΔTm [1] [°C] | inhibition [3] | ΔTm [4] [°C] | SMILES | Activity [2] |
| --- | --- | --- | --- | --- |
| 2.16 | Active | -0.3 | O=C(c1cccc(NCc2cc(-c3ccc(Cl)cc3)c[nH]c2=O)c1)N1CCOCC1 | inactive |
| 8.05 |  | 1.84 | O=C(c1ccc2c(c1)N(Cc1ccccc1)C(=O)c1ccccc1[S+]2[O-])N1CCCCC1 (stereo not drawn) | inactive |
